Experimental data: patent publication US20120141384A1, “ANTIBACTERIAL CONJUGATED BORONIC ACIDS AND PHARMACEUTICAL COMPOSITIONS THEREOF” (priority 2008, published 2012)

How the values were obtained:
[1] = tested on: Escherichia coli (ATCC No. 8739); experiment: Antimicrobial efficacy (challenge) test, plate count; assay type: cell-based; details: for No. of Surviving Microorganisms CFU/g: 25° C., initial contamination 2.8 × 10^5 CFU/g; for antimicrobial effect in words: following one day of exposure
Procedure: (§1) 2-FBP was obtained from Sigma Aldrich. Test Procedure: The test consisted of challenging the test solutions with specified microorganisms, storing the inoculated preparations at a prescribed temperature, removing the inoculated samples at specified intervals of time and counting the number of viable organisms in the withdrawn samples using a plate count procedure. The technical details were as follows: • The test was conducted in 20 g samples. • Each sample was separately inoculated by one of the test organisms. • The inoculated containers were incubated at 25° C. together with an uninoculated sample. • The inoculated container with P. acnes was incubated under anaerobic conditions at the same temperature. • The culture media for P. acnes was Brain Heart Infusion Agar instead of Tryptic Soy Agar. Formulations were challenged by introducing the following microorganisms: Escherichia coli (ATCC No. 8739) Counting of microorganisms in the inoculated samples was performed 1, 2 and 7 days following inoculation. The number of colony-forming units (cfu/g) determined at each incubation time point was compared to the number of cfu/g measured in non-inoculated control samples of FPB solutions. Antimicrobial effectiveness results, expressed as colony forming units of surviving microorganisms in the FPB solutions (cfu/g), are detailed in Tables 1-3.

[2] = tested on: Pseudomonas aeruginosa (ATCC No. 9027); experiment: as above; assay type: cell-based; details: for No. of Surviving Microorganisms CFU/g: 25° C., initial contamination 4.3 × 10^6 CFU/g; for antimicrobial effect in words: following one day of exposure
Procedure: as §1, with “Pseudomonas aeruginosa” for “Escherichia coli”, “9027)” for “8739)”

[3] = tested on: Propionbacterium acnes ATCC 11827; experiment: Antimicrobial efficacy (challenge) test, plate count, anaerobic incubation; assay type: cell-based; details: for No. of Surviving Microorganisms CFU/g: 25° C. anaerobic, initial contamination 4.1 × 10^5 CFU/g; for antimicrobial effect in words: following one day of exposure
Procedure: as §1, with “The purpose of this study was to assess the antimicrobial efficacy of 2-Formylphenyl boronic acid (FPB) aqueous solutions, in different concentrations of 10 mM, 20 mM and 40 mM. 2-FBP” for “2-FBP”, “Propionbacterium acnes ATCC 11827” for “Escherichia coli (ATCC No. 8739)”

[4] = Stability of 2-FBA under formulation conditions, amount by chromatography; assay type: physicochemical
Procedure: 2-Formylphenyl Boronic Acid (2-FBA) was exposed to various formulation conditions, in order to assess its optimized formulation stability properties. The amount of 2-FBA was assessed prior to the experiment and following the exposure to the different conditions by chromatography. The conditions are detailed in the following Table.

[5] = tested on: Staphylococcus aureus (ATCC No. 6538); experiment: Antimicrobial efficacy (challenge) test, plate count; assay type: cell-based; details: 30 mM FPB aqueous solution, 25° C., initial contamination 5.2 × 10^5 CFU/g
[6] = tested on: Propionbacterium acnes ATCC 11827; experiment: Antimicrobial efficacy (challenge) test, plate count, anaerobic incubation; assay type: cell-based; details: 30 mM FPB aqueous solution, 25° C. anaerobic, initial contamination 4.1 × 10^5 CFU/g
[7] = 10 mM FPB aqueous solution, 1 week
[8] = 10 mM FPB aqueous solution, 1 days
[9] = 10 mM FPB aqueous solution, 2 days
[10] = 20 mM FPB aqueous solution, 1 week
[11] = 20 mM FPB aqueous solution, 1 days
[12] = 20 mM FPB aqueous solution, 2 days
[13] = Solution 1 (10 mM FPB), within two days of exposure
[14] = solutions, concentrations of 10 mM, 20 mM and 40 mM

## O=Cc1ccccc1B(O)O [FPB, 2-Formylphenyl boronic acid]
[1]; [7]
  No. of Surviving Microorganisms CFU/g: <10 CFU/g
[1]; [8]
  No. of Surviving Microorganisms CFU/g: 6.4 × 10^4 CFU/g
[1]; [9]
  No. of Surviving Microorganisms CFU/g: <10 CFU/g
[1]; [10]
  No. of Surviving Microorganisms CFU/g: <10 CFU/g
[1]; [11]
  No. of Surviving Microorganisms CFU/g: 7.6 × 10^3 CFU/g
[1]; [12]
  No. of Surviving Microorganisms CFU/g: <10 CFU/g
[1]; 30 mM FPB aqueous solution, 1 week
  No. of Surviving Microorganisms CFU/g: <10 CFU/g
[1]; 30 mM FPB aqueous solution, 1 days
  No. of Surviving Microorganisms CFU/g: <10 CFU/g
[1]; 30 mM FPB aqueous solution, 2 days
  No. of Surviving Microorganisms CFU/g: <10 CFU/g
[1]; [13]
  log reduction of the count from the initial load: 2.0 log
[1]; Solution 2 (20 mM FBA)
  antimicrobial effect in words: completely eradicated
[1]; Solution 3 (40 mM FBA)
  antimicrobial effect in words: completely eradicated
[1]; [14]
  effectiveness (conclusion): effective
[2]; [7]
  No. of Surviving Microorganisms CFU/g: <10 CFU/g
[2]; [8]
  No. of Surviving Microorganisms CFU/g: 4.3 × 10^4 CFU/g
[2]; [9]
  No. of Surviving Microorganisms CFU/g: 5.0 × 10^1 CFU/g
[2]; [10]
  No. of Surviving Microorganisms CFU/g: <10 CFU/g
[2]; [11]
  No. of Surviving Microorganisms CFU/g: <10 CFU/g
[2]; [12]
  No. of Surviving Microorganisms CFU/g: <10 CFU/g
[2]; [13]
  log reduction of the count from the initial load: 2.0 log
[2]; Solution 2 (20 mM FBA)
  antimicrobial effect in words: completely eradicated
[2]; Solution 3 (40 mM FBA)
  antimicrobial effect in words: completely eradicated
[2]; [14]
  effectiveness (conclusion): effective
[3]; [7]
  No. of Surviving Microorganisms CFU/g: <10 CFU/g
[3]; [8]
  No. of Surviving Microorganisms CFU/g: <10 CFU/g
[3]; [9]
  No. of Surviving Microorganisms CFU/g: <10 CFU/g
[3]; [10]
  No. of Surviving Microorganisms CFU/g: <10 CFU/g
[3]; [11]
  No. of Surviving Microorganisms CFU/g: <10 CFU/g
[3]; [12]
  No. of Surviving Microorganisms CFU/g: <10 CFU/g
[3]; Solution 1 (10 mM FPB)
  antimicrobial effect in words: completely destroyed
[3]; Solution 2 (20 mM FBA)
  antimicrobial effect in words: completely eradicated
[3]; Solution 3 (40 mM FBA)
  antimicrobial effect in words: completely eradicated
[3]; [14]
  effectiveness (conclusion): effective
[4]; UV light
  stability in words: relatively stable
[4]; heat
  stability in words: relatively stable
[4]; in the presence of H2O2
  stability in words: underwent degradation
[4]; in the presence of HCl (0.1 N)
  stability in words: underwent degradation
[4]; in the presence of NaOH (0.1 N)
  stability in words: relatively stable
[5]; 1 week
  No. of Surviving Microorganisms CFU/g: <10 CFU/g
[5]; 1 days
  No. of Surviving Microorganisms CFU/g: <10 CFU/g
[5]; 2 days
  No. of Surviving Microorganisms CFU/g: <10 CFU/g
[6]; 1 week
  No. of Surviving Microorganisms CFU/g: <10 CFU/g
[6]; 1 days
  No. of Surviving Microorganisms CFU/g: <10 CFU/g
[6]; 2 days
  No. of Surviving Microorganisms CFU/g: <10 CFU/g
